This data set can be described thus: Solubility in processing solvents (Table 1, Compound Properties). Type of data set: physicochemical. The note with it: for Solubility anisole: solvent anisole; for Solubility toluene: solvent toluene. As for the experimental part: It is also noted that solubility of the chrysene derivative materials in processing solvents can be adjusted to satisfy solution processing requirements. In some embodiments the solubility of chrysene derivatives in toluene and anisole is higher than 20 mg per ml of solvent. High solubility allows for better solution processing of electroactive devices.

Molecules are shown by their SMILES. Converted amounts (≈) assume the structure as drawn.

With `CC(C)(C)c1ccc(N(c2ccc(-c3ccccc3)cc2)c2ccc3ccc4c5ccccc5ccc4c3c2)cc1` [Compound C3, N-(biphenyl-4-yl)-N-(4-tert-butylphenyl)chrysene-3-amine], the Solubility anisole amounted to 22.4 mg/mL (≈ 42.4 mM) and the Solubility toluene was 22.2 mg/mL (≈ 42.1 mM).
Consider `c1ccc(-c2ccc(N(c3ccc(-c4cccc5ccccc45)cc3)c3ccc4ccc5c6ccccc6ccc5c4c3)cc2)cc1` [Compound C5], for which the Solubility anisole worked out at 23.7 mg/mL (≈ 39.6 mM) and the Solubility toluene was 24.4 mg/mL (≈ 40.8 mM).
For `Cc1ccc(N(c2ccc(-c3ccc(-c4ccccc4)cc3)cc2)c2ccc3ccc4c5ccccc5ccc4c3c2)c(C)c1` [Compound C4], the Solubility anisole turned out to be 3.6 mg/mL (≈ 6.25 mM) and the Solubility toluene is 1.0 mg/mL (≈ 1.74 mM).
In the case of `[2H]c1c([2H])c([2H])c(-c2c([2H])c([2H])c(N(c3c([2H])c([2H])c(-c4c([2H])c([2H])c([2H])c(-c5c([2H])c([2H])c([2H])c([2H])c5[2H])c4[2H])c([2H])c3[2H])c3c([2H])c([2H])c4c([2H])c([2H])c5c6c([2H])c([2H])c([2H])c([2H])c6c([2H])c([2H])c5c4c3[2H])c([2H])c2[2H])c([2H])c1[2H]` [Compound C2, Perdeutero-N-([1,1′-biphenyl]-4-yl)-N-([1,1′:3′,1″-terphenyl]-4-yl)chrysen-3-amine], where the note is “compared with compound C1 of Table 1”, the solubility properties result was “very similar to those of compound C1”.
For the compound `c1ccc(-c2ccc(N(c3ccc(-c4cccc(-c5ccccc5)c4)cc3)c3ccc4ccc5c6ccccc6ccc5c4c3)cc2)cc1` [Compound C1], the Solubility anisole is 23.9 mg/mL (≈ 38.3 mM) and the Solubility toluene was 24.6 mg/mL (≈ 39.4 mM).

Source of the values: patent US8968883B2, “Chrysene derivative materials” (E I du Pont de Nemours and Company, priority 2009, dated 2015).
